For data set [1], the system named is HepG2. Kind of data set: Agonist activity against PPARalpha/delta (unknown origin) assessed as upregulation of ACADVL mRNA expression in human HepG2 cells incubated for 12 hrs by RT-PCR analysis. It is filed as cell-based. As to conditions: filed as agonist, dose 8-200 nM.
Data set [2] relates to Mus musculus. In words: In vivo agonist activity at PPARalpha/delta assessed as upregulation of Csnk1g2 mRNA expression in C57BL/6Nifdc mouse liver at 10 mg/kg, po for 4 days. The class given is functional, organism-based. Conditions: time 4.0 day.
The test system of data set [3] is Mus musculus. In words: In vivo agonist activity at PPARalpha/delta assessed as upregulation of Hmgcs2 mRNA expression in C57BL/6Nifdc mouse liver at 10 mg/kg, po for 4 days. The class given is functional, organism-based. Conditions: time 4.0 day.
Data set [4] deals with Mus musculus. Kind of data set: In vivo agonist activity against PPARalpha/delta assessed as upregulation of Ucp3 mRNA expression in C57BL/6Nifdc mouse liver at 10 mg/kg, po for 4 days. It is filed as functional, organism-based. As to conditions: time 4.0 day.
Data set [5] deals with Mus musculus. Kind of data set: In vivo agonist activity against PPARalpha/delta assessed as upregulation of Acs15 mRNA expression in C57BL/6Nifdc mouse liver at 10 mg/kg, po for 4 days. As to conditions: time 4.0 day. It is filed as functional, organism-based.
Data set [6] relates to Mus musculus. In words: In vivo agonist activity against PPARalpha/delta assessed as upregulation of Aldh3a2 mRNA expression in C57BL/6Nifdc mouse liver at 10 mg/kg, po for 4 days. The class given is functional, organism-based. Conditions: time 4.0 day.
The subject of data set [7] is Mus musculus. Kind of data set: In vivo agonist activity against PPARalpha/delta assessed as upregulation of Vnn1 mRNA expression in C57BL/6Nifdc mouse liver at 10 mg/kg, po for 4 days. It is filed as functional, organism-based. Conditions: time 4.0 day.
Data set [8] relates to Mus musculus. Kind of data set: In vivo agonist activity against PPARalpha/delta assessed as upregulation of Ucp3 mRNA expression in C57BL/6Nifdc mouse skeletal muscle at 10 mg/kg, po for 4 days. It is filed as functional, organism-based. As to conditions: time 4.0 day.
Data set [9] has as its target T1, Nuclear receptor subfamily 1 group I member 2 (Homo sapiens, UniProt O75469).
T1 sequence (O75469 whole entry): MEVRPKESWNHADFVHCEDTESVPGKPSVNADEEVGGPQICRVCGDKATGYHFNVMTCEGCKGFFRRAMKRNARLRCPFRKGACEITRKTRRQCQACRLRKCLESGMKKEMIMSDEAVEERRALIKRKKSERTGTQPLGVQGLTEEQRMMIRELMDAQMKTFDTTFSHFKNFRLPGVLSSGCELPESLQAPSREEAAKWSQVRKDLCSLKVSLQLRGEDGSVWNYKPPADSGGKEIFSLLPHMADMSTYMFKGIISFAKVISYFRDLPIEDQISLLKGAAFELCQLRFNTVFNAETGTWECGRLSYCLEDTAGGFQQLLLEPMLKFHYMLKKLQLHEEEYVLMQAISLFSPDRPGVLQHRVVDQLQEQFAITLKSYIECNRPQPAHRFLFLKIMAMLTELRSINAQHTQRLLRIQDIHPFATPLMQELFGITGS
Kind of data set: Agonist activity at human PXR (138 to 434 residues) in Cos7 cells transfected with LBD-Gal4 and pGL435 Gal4 UAS Luc reporter plasmid at 10 uM by reporter gene assay. It is filed as cell-based. Conditions: cos7, 10 µM. For orientation: Reporter assays use an easily measured gene product as a stand-in for the process of interest.

A short description of data set [10]: Microsomal stability in human liver microsomes assessed as terminal elimination half life at 1 uM measured upto 60 mins by LC-MS/MS-11 analysis. It is filed as ADME, Microsome. A general note: Microsomes from liver hold many membrane-bound enzymes, among them those of drug oxidation.
Data set [11] deals with Mus musculus. In words: Anti-NASH activity in HF-CDAA-induced nonalcoholic steatohepatitis C57BL/6JNifdc mouse model assessed as reduction in steatosis by measuring hepatic triglyceride level at 3 to 30 mg/kg, po. It is filed as functional, organism-based. Conditions: dose 3-30 mg/kg.
Data set [12] concerns Mus musculus. In words: Anti-NASH activity in HF-CDAA-induced nonalcoholic steatohepatitis C57BL/6JNifdc mouse model assessed as reduction in steatosis by measuring hepatic total cholesterol level at 3 to 30 mg/kg, po. Conditions: dose 3-30 mg/kg. The class given is functional, organism-based.
Data set [13] has as its system Mus musculus. In words: Anti-fibrosis effect in CCl4 induced liver fibrosis C57BL/6JNifdc mouse model by measuring serum triglyceride level at 3 to 30 mg/kg, po. It is filed as functional, organism-based. As to conditions: dose 3-30 mg/kg.
For data set [14], the system named is AML12. Kind of data set: Agonist activity against PPARalpha/delta (unknown origin) assessed as upregulation of ACADVL mRNA expression in […] cells incubated for 12 hrs by RT-PCR analysis. The class given is cell-based. Conditions: filed as agonist, dose 8-200 nM.
For data set [15], the system named is C2C12. In words: Agonist activity against PPARalpha/delta (unknown origin) assessed as upregulation of Cpt1A mRNA expression in […] cells incubated for 12 hrs by RT-PCR analysis. It is filed as cell-based. Conditions: filed as agonist, dose 8-200 nM.
The subject of data set [16] is C2C12. Kind of data set: Agonist activity against PPARalpha/delta (unknown origin) assessed as upregulation of Angpt14 mRNA expression in […] cells at 8 nM incubated for 12 hrs by RT-PCR analysis. The class given is cell-based. As to conditions: filed as agonist.

One may read the half-life as the time needed for the level to fall by half in the phase considered.

Structures are written as SMILES. The source made the active and inactive calls.

As for `Cc1cc(Cn2ncn(-c3ccc(OC(F)(F)F)cc3)c2=O)cc(C)c1OC(C)(C)C(=O)O`, the Activity result in data set [1] was “Dose-Dependent Effect”; in data set [9], “Not Active”; in data set [14], “Dose-Dependent Effect”; in data set [15], “Dose-Dependent Effect”. Further, the result in [2], in data set [3], in [4], in [5], in data set [6] and in [7] was Active. Besides, the result in data set [8], in data set [11], in data set [12], in data set [13] and in data set [16] was Active. In addition, the half-life at 1 µM in data set [10] is over 2 h.

(Values after ChEMBL document CHEMBL5042526, “Design, Synthesis, and Biological Evaluation of Triazolone Derivatives as Potent PPARα/δ Dual Agonists for the Treatment of Nonalcoholic Steatohepatitis” (J Med Chem, 2022).)
